Values of other authors as cited in publication PMC9851200, “Multiparameter phenotypic screening for endogenous TFEB and TFE3 translocation identifies novel chemical series modulating lysosome function” (Autophagy, 2022).

Assays:
Parameters in all cases: method as in original PKIS2 published data
[1] = molecular target: kinases (KINOMEscan panel) (Homo sapiens, UniProt P57059); details: kinase SIK1; Published KINOMEscan; ref original PKIS2 published data; cited from earlier work
[2] = molecular target: kinases (KINOMEscan panel) (Homo sapiens, UniProt Q86V86); details: kinase PIM3; Published KINOMEscan; ref original PKIS2 published data; cited from earlier work
[3] = molecular target: kinases (KINOMEscan panel) (Homo sapiens, UniProt P54756); details: kinase EPHA5; Published KINOMEscan; ref original PKIS2 published data; cited from earlier work
[4] = molecular target: kinases (KINOMEscan panel) (Homo sapiens, UniProt Q9H0K1); details: kinase SIK2; Published KINOMEscan; ref original PKIS2 published data; cited from earlier work
[5] = molecular target: kinases (KINOMEscan panel) (Homo sapiens, UniProt O75716); details: kinase STK16; Published KINOMEscan; ref original PKIS2 published data; cited from earlier work
Chain of kinases (KINOMEscan panel) (Homo sapiens, UniProt O75716) (O75716 whole entry): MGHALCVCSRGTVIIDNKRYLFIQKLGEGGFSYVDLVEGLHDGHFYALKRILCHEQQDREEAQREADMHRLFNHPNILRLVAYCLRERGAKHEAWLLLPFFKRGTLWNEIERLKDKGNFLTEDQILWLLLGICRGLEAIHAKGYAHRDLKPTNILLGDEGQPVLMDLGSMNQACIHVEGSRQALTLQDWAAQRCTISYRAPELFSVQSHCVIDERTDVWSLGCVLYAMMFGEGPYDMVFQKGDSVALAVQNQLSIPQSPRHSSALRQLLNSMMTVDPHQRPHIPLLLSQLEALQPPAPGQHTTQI

[6] = molecular target: kinases (KINOMEscan panel) (Homo sapiens, UniProt P50750); details: kinase CDK9; Published KINOMEscan; ref original PKIS2 published data; cited from earlier work
[7] = molecular target: kinases (KINOMEscan panel) (Homo sapiens, UniProt Q13233); details: MAP3K1; Published KINOMEscan; ref original PKIS2 published data; cited from earlier work
[8] = molecular target: kinases (KINOMEscan panel) (Homo sapiens, UniProt Q9UM73); details: kinase ALK; Published KINOMEscan; ref original PKIS2 published data; cited from earlier work
Chain of kinases (KINOMEscan panel) (Homo sapiens, UniProt Q9UM73) (Q9UM73 19-1620): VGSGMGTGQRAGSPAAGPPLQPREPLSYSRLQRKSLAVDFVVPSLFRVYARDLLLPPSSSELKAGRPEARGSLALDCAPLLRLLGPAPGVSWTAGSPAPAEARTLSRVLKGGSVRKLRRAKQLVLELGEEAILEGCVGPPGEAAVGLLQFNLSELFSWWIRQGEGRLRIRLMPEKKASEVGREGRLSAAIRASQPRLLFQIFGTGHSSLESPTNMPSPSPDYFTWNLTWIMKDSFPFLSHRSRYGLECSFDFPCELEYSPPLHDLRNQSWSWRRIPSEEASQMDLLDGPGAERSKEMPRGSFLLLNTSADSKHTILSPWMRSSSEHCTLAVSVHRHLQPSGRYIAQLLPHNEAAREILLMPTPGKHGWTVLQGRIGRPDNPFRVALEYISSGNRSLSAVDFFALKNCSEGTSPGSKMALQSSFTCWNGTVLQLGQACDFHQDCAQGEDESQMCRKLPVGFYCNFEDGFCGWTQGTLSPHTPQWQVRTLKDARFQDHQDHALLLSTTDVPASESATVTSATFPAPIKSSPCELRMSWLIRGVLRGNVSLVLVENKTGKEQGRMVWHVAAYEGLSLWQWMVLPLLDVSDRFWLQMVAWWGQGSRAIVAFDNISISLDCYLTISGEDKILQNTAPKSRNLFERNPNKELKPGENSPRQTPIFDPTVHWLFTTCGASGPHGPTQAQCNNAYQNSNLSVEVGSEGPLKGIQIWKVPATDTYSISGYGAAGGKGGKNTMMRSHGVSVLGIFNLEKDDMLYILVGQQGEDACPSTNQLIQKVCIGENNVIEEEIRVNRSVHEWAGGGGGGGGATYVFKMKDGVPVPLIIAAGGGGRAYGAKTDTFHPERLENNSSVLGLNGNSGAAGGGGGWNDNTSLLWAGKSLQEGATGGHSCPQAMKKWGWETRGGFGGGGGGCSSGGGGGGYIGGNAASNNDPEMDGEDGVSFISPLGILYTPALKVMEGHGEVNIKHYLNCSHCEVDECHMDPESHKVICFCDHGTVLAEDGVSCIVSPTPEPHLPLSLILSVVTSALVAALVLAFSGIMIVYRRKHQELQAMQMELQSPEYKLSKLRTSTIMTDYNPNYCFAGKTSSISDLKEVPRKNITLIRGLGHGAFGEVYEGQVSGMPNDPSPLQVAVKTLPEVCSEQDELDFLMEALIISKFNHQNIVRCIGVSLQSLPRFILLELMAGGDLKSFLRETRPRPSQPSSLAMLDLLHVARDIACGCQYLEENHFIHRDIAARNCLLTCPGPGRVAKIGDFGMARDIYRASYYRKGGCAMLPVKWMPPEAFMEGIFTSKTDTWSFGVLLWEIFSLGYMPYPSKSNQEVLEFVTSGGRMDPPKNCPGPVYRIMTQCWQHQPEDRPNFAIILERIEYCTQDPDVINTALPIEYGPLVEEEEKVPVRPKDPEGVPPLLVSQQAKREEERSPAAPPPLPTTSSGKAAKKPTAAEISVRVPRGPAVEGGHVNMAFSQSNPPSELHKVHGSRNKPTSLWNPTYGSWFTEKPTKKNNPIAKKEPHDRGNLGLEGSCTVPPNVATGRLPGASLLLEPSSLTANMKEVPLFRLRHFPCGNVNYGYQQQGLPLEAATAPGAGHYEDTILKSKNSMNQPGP

[9] = molecular target: kinases (KINOMEscan panel) (Homo sapiens, UniProt P48736); details: kinase PIK3CG; Published KINOMEscan; ref original PKIS2 published data; cited from earlier work
Chain of kinases (KINOMEscan panel) (Homo sapiens, UniProt P48736) (P48736 whole entry): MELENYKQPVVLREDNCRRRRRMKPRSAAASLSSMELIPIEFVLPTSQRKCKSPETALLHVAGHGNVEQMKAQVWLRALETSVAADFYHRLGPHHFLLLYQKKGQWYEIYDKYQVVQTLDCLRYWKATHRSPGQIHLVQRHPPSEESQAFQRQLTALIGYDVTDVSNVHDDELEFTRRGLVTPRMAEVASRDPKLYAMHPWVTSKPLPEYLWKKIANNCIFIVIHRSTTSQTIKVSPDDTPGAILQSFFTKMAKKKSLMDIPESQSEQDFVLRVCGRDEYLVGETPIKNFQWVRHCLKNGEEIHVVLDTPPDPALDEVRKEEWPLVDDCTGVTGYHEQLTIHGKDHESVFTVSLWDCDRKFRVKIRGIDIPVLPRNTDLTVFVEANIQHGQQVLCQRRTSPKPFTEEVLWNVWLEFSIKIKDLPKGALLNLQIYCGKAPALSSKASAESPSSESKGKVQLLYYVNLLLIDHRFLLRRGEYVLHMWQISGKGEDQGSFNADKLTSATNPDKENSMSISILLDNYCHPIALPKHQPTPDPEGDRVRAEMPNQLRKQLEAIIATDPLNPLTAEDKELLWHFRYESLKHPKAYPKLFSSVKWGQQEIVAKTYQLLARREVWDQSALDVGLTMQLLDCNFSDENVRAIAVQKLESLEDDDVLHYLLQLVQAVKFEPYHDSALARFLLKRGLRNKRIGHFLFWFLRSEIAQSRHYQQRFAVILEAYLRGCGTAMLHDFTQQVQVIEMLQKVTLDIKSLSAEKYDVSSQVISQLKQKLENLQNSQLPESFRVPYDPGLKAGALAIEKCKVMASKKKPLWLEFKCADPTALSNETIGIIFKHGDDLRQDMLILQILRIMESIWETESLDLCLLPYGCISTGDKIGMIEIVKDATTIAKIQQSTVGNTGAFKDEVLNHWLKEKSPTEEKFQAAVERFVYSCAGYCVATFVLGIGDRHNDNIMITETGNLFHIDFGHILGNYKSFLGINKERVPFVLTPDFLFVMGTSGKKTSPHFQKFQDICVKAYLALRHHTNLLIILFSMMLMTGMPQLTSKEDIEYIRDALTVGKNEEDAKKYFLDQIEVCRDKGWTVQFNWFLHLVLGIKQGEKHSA

[10] = molecular target: kinases (KINOMEscan panel) (Homo sapiens, UniProt Q9BX84); details: TRPM6; Published KINOMEscan; ref original PKIS2 published data; cited from earlier work
Chain of kinases (KINOMEscan panel) (Homo sapiens, UniProt Q9BX84) (Q9BX84 whole entry): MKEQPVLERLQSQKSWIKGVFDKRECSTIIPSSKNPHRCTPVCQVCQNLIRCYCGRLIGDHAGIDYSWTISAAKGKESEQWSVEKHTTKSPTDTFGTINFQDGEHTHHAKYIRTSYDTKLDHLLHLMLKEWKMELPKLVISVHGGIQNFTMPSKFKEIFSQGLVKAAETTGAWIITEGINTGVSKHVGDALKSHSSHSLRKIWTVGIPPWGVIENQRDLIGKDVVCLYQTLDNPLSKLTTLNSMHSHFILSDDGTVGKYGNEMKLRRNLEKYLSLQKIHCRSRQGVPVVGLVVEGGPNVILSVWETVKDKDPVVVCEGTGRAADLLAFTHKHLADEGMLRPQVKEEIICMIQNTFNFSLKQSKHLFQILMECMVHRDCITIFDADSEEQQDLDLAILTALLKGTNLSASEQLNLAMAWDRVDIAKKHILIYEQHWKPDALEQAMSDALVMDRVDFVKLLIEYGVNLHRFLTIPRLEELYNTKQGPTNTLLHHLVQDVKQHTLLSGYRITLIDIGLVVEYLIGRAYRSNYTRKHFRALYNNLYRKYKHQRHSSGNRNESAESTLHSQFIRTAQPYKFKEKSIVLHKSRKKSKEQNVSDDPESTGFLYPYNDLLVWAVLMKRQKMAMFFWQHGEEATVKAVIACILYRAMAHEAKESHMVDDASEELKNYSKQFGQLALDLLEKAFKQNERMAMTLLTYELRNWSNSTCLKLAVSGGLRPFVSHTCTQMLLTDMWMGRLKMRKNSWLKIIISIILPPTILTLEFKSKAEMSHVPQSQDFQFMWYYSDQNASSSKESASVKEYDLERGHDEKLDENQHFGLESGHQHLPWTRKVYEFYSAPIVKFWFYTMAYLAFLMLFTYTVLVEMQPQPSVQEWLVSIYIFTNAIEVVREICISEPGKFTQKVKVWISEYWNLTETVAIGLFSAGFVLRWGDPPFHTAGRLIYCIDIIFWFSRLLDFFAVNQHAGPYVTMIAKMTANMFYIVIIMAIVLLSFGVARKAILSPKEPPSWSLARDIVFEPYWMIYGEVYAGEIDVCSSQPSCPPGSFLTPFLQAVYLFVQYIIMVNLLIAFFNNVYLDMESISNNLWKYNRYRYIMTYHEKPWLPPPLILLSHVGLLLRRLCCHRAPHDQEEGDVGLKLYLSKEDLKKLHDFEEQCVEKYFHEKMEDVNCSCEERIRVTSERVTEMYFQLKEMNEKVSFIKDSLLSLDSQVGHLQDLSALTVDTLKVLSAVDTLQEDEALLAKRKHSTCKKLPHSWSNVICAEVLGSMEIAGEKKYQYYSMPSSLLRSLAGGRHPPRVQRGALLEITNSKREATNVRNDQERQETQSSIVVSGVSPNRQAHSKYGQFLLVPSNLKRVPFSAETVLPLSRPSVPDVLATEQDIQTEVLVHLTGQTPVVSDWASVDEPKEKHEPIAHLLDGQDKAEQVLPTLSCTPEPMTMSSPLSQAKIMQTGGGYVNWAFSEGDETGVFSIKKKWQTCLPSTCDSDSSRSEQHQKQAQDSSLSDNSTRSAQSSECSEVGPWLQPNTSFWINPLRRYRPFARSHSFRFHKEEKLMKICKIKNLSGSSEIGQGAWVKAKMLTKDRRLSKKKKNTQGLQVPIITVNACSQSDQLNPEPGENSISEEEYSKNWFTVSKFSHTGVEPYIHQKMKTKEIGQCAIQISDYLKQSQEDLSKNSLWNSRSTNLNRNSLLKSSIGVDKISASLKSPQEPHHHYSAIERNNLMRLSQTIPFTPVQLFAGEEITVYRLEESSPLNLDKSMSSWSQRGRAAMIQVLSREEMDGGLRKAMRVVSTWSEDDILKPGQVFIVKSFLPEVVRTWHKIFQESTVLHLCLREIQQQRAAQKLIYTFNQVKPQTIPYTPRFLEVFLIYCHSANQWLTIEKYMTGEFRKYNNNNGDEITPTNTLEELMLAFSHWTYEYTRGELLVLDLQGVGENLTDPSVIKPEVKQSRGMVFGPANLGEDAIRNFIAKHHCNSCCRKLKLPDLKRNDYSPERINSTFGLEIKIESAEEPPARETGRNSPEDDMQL

[11] = molecular target: kinases (KINOMEscan panel) (Homo sapiens, UniProt Q16513); details: kinase PKN2; Published KINOMEscan; ref original PKIS2 published data; cited from earlier work
[12] = molecular target: kinases (KINOMEscan panel) (Homo sapiens, UniProt Q13177); details: PAK2; Published KINOMEscan; ref original PKIS2 published data; cited from earlier work
[13] = molecular target: T1, kinases (KINOMEscan panel) (Homo sapiens, UniProt Q86YV6); details: kinase MYLK4; Published KINOMEscan; ref original PKIS2 published data; cited from earlier work
T1 sequence (Q86YV6 1-388): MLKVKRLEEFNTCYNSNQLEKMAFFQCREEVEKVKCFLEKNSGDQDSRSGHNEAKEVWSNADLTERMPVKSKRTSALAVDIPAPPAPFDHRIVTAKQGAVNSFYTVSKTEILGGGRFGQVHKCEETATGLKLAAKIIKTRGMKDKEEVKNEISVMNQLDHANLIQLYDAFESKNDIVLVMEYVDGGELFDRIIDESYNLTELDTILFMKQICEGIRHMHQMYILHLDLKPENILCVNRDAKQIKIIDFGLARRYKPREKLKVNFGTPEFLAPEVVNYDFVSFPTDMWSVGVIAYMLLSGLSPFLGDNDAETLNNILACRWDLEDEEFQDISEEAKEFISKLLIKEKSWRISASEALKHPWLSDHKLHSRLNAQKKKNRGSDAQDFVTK

[14] = molecular target: kinases (KINOMEscan panel) (Homo sapiens, UniProt Q13557); details: kinase CAMK2D; Published KINOMEscan; ref original PKIS2 published data; cited from earlier work
[15] = molecular target: kinases (KINOMEscan panel) (Homo sapiens, UniProt Q9Y2H9); details: MAST1; Published KINOMEscan; ref original PKIS2 published data; cited from earlier work
[16] = molecular target: T2, kinases (KINOMEscan panel) (Homo sapiens, UniProt O14920); details: cited from earlier work
T2 sequence (O14920 1-756): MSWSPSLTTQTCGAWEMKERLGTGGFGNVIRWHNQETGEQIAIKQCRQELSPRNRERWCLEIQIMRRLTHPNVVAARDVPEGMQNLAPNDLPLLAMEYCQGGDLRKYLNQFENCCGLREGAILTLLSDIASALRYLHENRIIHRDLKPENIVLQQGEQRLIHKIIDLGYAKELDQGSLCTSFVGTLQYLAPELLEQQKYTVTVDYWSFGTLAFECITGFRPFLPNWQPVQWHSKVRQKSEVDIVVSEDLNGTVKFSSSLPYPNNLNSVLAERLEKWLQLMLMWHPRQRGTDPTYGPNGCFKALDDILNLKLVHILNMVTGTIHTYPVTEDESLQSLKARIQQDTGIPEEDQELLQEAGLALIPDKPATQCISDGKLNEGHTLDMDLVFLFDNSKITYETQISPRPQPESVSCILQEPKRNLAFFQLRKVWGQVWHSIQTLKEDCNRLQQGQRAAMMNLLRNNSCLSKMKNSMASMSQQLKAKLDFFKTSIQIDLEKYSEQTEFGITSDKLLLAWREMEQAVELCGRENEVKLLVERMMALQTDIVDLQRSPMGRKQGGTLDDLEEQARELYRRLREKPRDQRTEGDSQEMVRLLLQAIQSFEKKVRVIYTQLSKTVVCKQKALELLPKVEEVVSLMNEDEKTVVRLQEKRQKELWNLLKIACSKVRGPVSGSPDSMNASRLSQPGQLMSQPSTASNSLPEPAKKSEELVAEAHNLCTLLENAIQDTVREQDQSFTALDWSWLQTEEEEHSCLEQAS

Cc1cccc(-c2nc(Nc3ccncc3)c3ccccc3n2)n1 [NK215]
KINOMEscan SIK1 [1]: 4
KINOMEscan PIM3 [2]: 0
KINOMEscan EPHA5 [3]: 0
KINOMEscan SIK2 [4]: 0
KINOMEscan STK16 [5]: 7
KINOMEscan CDK9 [6]: 0
KINOMEscan MAP3K1 [7]: 0
KINOMEscan ALK [8]: 0
KINOMEscan PIK3CG [9]: 0
KINOMEscan TRPM6 [10]: 0
KINOMEscan PKN2 [11]: 0
KINOMEscan PAK2 [12]: 0
KINOMEscan MYLK4 [13]: 7
KINOMEscan CAMK2D [14]: 7
KINOMEscan MAST1 [15]: 50
KINOMEscan IKBKB/IKK-beta [16]: 0
